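At the GI50, growth is halved. Definition used: TGI = concentration required for complete inhibition of growth.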
Assays:
Assay in all cases: NCI-60 cell line screen, 384-well format
[1] = system: A498 renal
[2] = system: SK-MEL-5 melanoma
[3] = system: ACHN renal
[4] = system: SW-620 colon
[5] = system: M14 melanoma
[6] = system: LOX IMVI melanoma
[7] = system: HL-60(TB) leukemia
[8] = system: OVCAR-8 ovarian
[9] = system: PC-3 prostate
[10] = system: HCT-15 colon
[11] = system: SF-268 CNS
[12] = system: NCI-H23 lung
[13] = system: DU-145 prostate
[14] = system: COLO 205 colon
[15] = system: EKVX NSCLC
[16] = system: CAKI-1 renal
[17] = system: SF-539 CNS
[18] = system: SK-OV-3 ovarian
[19] = system: KM12 colon
[20] = system: NCI-H460 NSCLC
[21] = system: CCRF-CEM leukemia
[22] = system: SNB-75 CNS
[23] = system: SK-MEL-28 melanoma
[24] = system: RPMI-8226 leukemia
[25] = system: SF-295 CNS
[26] = system: 786-0 renal
[27] = system: BT-549 breast
[28] = system: U251 glioblastoma
[29] = system: NCI-H522 lung
[30] = system: TK-10 renal
[31] = system: NCI-H226 lung
[32] = system: RXF 393 renal
[33] = system: OVCAR-3 ovarian
[34] = system: NCI/ADR-RES ovarian
[35] = system: SNB-19 CNS
[36] = system: MDA-MB-231 breast
[37] = system: MOLT-4 leukemia
[38] = system: MCF7 breast
[39] = system: HCC-2998 colon
[40] = system: MALME-3M melanoma
[41] = system: HOP-92 NSCLC
[42] = system: HT29 colon
[43] = system: SN12C renal
[44] = system: MDA-MB-468 breast
[45] = system: NCI-H322M lung
[46] = system: HOP-62 NSCLC
[47] = system: A549 NSCLC
[48] = system: OVCAR-4 ovarian
[49] = system: HS 578T breast
[50] = system: UO-31 renal
[51] = system: MDA-MB-435 melanoma
[52] = system: HCT-116 colon
[53] = system: T-47D breast
[54] = system: UACC-62 melanoma
[55] = system: OVCAR-5 ovarian
[56] = system: IGROV1 ovarian
[57] = system: SR leukemia
[58] = system: UACC-257 melanoma

Structure (SMILES): C=CC(=O)N1CCC([C@@H]2CCNc3c(C(N)=O)c(-c4ccc(Oc5ccccc5)cc4)nn32)CC1
- GI50 [1]: 15.1 µM
- TGI [1]: > 56.3 µM
- GI50 [2]: 15.6 µM
- TGI [2]: 30 µM
- GI50 [3]: 9.75 µM
- TGI [3]: 44.6 µM
- GI50 [4]: 18.7 µM
- TGI [4]: 36.5 µM
- GI50 [5]: 18 µM
- TGI [5]: 36.8 µM
- GI50 [6]: 14.9 µM
- TGI [6]: 28.5 µM
- GI50 [7]: 17.1 µM
- TGI [7]: 31.3 µM
- GI50 [8]: 17.2 µM
- TGI [8]: 36.1 µM
- GI50 [9]: 31.6 µM
- TGI [9]: > 86 µM
- GI50 [10]: 16.8 µM
- TGI [10]: 32.1 µM
- GI50 [11]: 15.4 µM
- TGI [11]: 40.6 µM
- GI50 [12]: 16.8 µM
- TGI [12]: 31.6 µM
- GI50 [13]: 11.6 µM
- TGI [13]: 30.6 µM
- GI50 [14]: 21.7 µM
- TGI [14]: 45.6 µM
- GI50 [15]: 6.77 µM
- TGI [15]: 31.2 µM
- GI50 [16]: 14.7 µM
- TGI [16]: 47.7 µM
- GI50 [17]: 17.8 µM
- TGI [17]: 35.7 µM
- GI50 [18]: 14.2 µM
- TGI [18]: > 69.8 µM
- GI50 [19]: 42.5 µM
- TGI [19]: > 100 µM
- GI50 [20]: 25.2 µM
- TGI [20]: > 61.8 µM
- GI50 [21]: 19.7 µM
- TGI [21]: 35 µM
- GI50 [22]: 17.4 µM
- TGI [22]: 50.6 µM
- GI50 [23]: 18 µM
- TGI [23]: 33.6 µM
- GI50 [24]: 16.3 µM
- TGI [24]: 30.7 µM
- GI50 [25]: 28.5 µM
- TGI [25]: > 80.2 µM
- GI50 [26]: 15.4 µM
- TGI [26]: 37.7 µM
- GI50 [27]: 13.4 µM
- TGI [27]: 26.4 µM
- GI50 [28]: 19.4 µM
- TGI [28]: 40.7 µM
- GI50 [29]: 3.46 µM
- TGI [29]: 12.1 µM
- GI50 [30]: 5.89 µM
- TGI [30]: 27.3 µM
- GI50 [31]: 14.2 µM
- TGI [31]: 32.3 µM
- GI50 [32]: 7.6 µM
- TGI [32]: 20.2 µM
- GI50 [33]: 9.13 µM
- TGI [33]: 25.6 µM
- GI50 [34]: 16.9 µM
- TGI [34]: 36.5 µM
- GI50 [35]: 20 µM
- TGI [35]: 51 µM
- GI50 [36]: 17.4 µM
- TGI [36]: 33.6 µM
- GI50 [37]: 14.3 µM
- TGI [37]: 27.6 µM
- GI50 [38]: 23.7 µM
- TGI [38]: > 69 µM
- GI50 [39]: 11.7 µM
- TGI [39]: 24.2 µM
- GI50 [40]: 15.3 µM
- TGI [40]: 29.1 µM
- GI50 [41]: 14.6 µM
- TGI [41]: 29.7 µM
- GI50 [42]: 17.8 µM
- TGI [42]: 33.4 µM
- GI50 [43]: 17.6 µM
- TGI [43]: 55 µM
- GI50 [44]: 0.684 µM
- TGI [44]: 4.09 µM
- GI50 [45]: 2.53 µM
- TGI [45]: 15 µM
- GI50 [46]: 19.6 µM
- TGI [46]: 49.6 µM
- GI50 [47]: 16.2 µM
- TGI [47]: > 52.4 µM
- GI50 [48]: 15.5 µM
- TGI [48]: 45.9 µM
- GI50 [49]: 16 µM
- TGI [49]: 30.8 µM
- GI50 [50]: 12.1 µM
- TGI [50]: > 80.8 µM
- GI50 [51]: 23 µM
- TGI [51]: 53.7 µM
- GI50 [52]: 17.6 µM
- TGI [52]: 32.8 µM
- GI50 [53]: 7.05 µM
- TGI [53]: > 77.2 µM
- GI50 [54]: 16.7 µM
- TGI [54]: 34 µM
- GI50 [55]: 48.2 µM
- TGI [55]: > 100 µM
- GI50 [56]: 4.22 µM
- TGI [56]: 16.9 µM
- GI50 [57]: 14.2 µM
- TGI [57]: 27.6 µM
- GI50 [58]: 17.8 µM
- TGI [58]: 35.3 µM

— PubChem BioAssay (NCI)
